{
  "source": "patent EP4775219A1",
  "about": "“USE OF VIRUS 3C PROTEASE IN PREVENTION OR TREATMENT OF TUMOR” (Academy of Military Medical Sciences, priority 2023, dated 2025)",
  "key": {"[1]": {"target": "3C protein in U87 MG cells (Enterovirus A71, UniProt B9VUU3)", "sequence (B9VUU3 1549-1731, change not shown)": "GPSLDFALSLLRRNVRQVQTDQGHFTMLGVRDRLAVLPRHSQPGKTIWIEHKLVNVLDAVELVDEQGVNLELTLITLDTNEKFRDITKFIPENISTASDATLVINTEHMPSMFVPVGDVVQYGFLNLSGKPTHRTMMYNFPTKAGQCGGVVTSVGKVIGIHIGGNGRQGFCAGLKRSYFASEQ", "type": "cell-based, EV71 or Coxsackievirus A14", "procedure": "(§1) Rupintrivir (AG7088) is an effective, selective and irreversible 3C protease inhibitor. U87 MG cells and A172 cells were seeded in white-walled clear-bottom 96-well plates at a density of 1.0×10^4 per well, and cultured at 37°C with 5% CO2 for 24 hours. Subsequently, EV-3C-mRNA was diluted with Opti-MEM to final concentrations of 998.4 ng/ml, 499.2 ng/ml, 249.6 ng/ml, 124.8 ng/ml, 62.4 ng/ml, 31.2 ng/ml, and 15.6 ng/ml, and transfected into cells with Lipo2000 liposomes. Compound AG7088 was serially diluted with 2% cell maintenance medium and then added to the 96-well plates to final concentrations of 10µM, 1µM and 0µM, respectively. After 48h, the supernatant was discarded, and the diluted Cell-Titer Glo® Luminescent Cell Viability assay solution was added. The mixture was shaken for 5min in the dark to lyse the cells, followed by standing for 3min. Finally, the luminescence value of each well was measured using a microplate reader. Cell viability (%) = average value of experimental group/average value of cell control group × 100 [formula]\n(§2) Data analysis: The inhibition rate-concentration curve was fitted to a sigmoidal curve using Origin9.0 software to calculate the half-maximal effective concentration (EC50) of AG7088 against 3C-mRNA. The half-cytotoxic concentration (CC50) of the compound was calculated using the same method."}, "[2]": {"target": "3C protein in A172 cells (Enterovirus A71, UniProt B9VUU3)", "sequence (B9VUU3 1549-1731, change not shown)": "as above", "test": "AG7088 blocking the inhibition of cell viability by EV-3C-mRNA", "type": "cell-based, EV71 or Coxsackievirus A14", "details": "inhibition of the decrease in cell viability caused by 3C-mRNA transfection", "procedure": "as §1, §2"}, "[3]": {"test": "in vitro", "type": "cell-based", "details": "human", "procedure": "as §2"}, "[4]": {"test": "in vitro", "type": "cell-based", "details": "human", "procedure": "as §2", "remark": "listed apart in the source"}},
  "data": [
    {"smiles": "CCOC(=O)/C=C/[C@H](C[C@@H]1CCNC1=O)NC(=O)[C@@H](CC(=O)[C@@H](NC(=O)c1cc(C)on1)C(C)C)Cc1ccc(F)cc1", "note": "[AG7088, Rupintrivir]", "values": [
      {"measurement": "Viability of U87 cells (%)", "setting": "[1]; AG7088 1µM + EV-3C-mRNA 31.2 ng/ml, 48h", "value": "95.64±2", "unit": "%"},
      {"measurement": "IC50", "setting": "[1]; inhibition of the decrease in cell viability caused by 3C-mRNA transfection, U87 MG cells", "value": "1.15 ± 0.19", "unit": "µM"},
      {"measurement": "IC50", "setting": "[2]", "value": "0.439 ± 0.03", "unit": "µM"},
      {"measurement": "CC50", "setting": "[3]", "value": "> 100", "unit": "µM"},
      {"measurement": "CC50", "setting": "[4]", "value": "> 100", "unit": "µM"}
    ]}
  ]
}
